Experimental data from the supplement of paper PMC11208160.

test: recombinant barcode read abundance after kanamycin selection (control-corrected) (log10(CPM+1)); higher = more efficient recombination; sequences stand for … in AGTGCAGAGAAAATCGGCCAGTTTTCTCTGCCTGCAGTCCGCATGCCGT…AGATTTATGCAGCGGACTGCCTTTCTCCCAAAGTGATAAACCGGACAGTATCATGGACCGGTTTTCCCGGTAATCCGTATTTGCAAGGTTGGTTTCACT; site = the 11-nt target
Summary of the method: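 IS621 bridge RNA target-binding loops were paired with targets in a pooled library tested in E. coli. After co-electroporation with a donor plasmid, cells were plated in two replicates on chloramphenicol/ampicillin LB agar (control) and on chloramphenicol/ampicillin/kanamycin carrying 0.1 mM IPTG. Barcodes at recombinant junctions were counted as counts per million, averaged and control-corrected to give recombination efficiency. Values are log10(CPM+1).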
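Also: IS621 recombinase and bridge RNA in Escherichia coli cells.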

“TAGAACTCTTGGGTTCTAACCTGTTGCGT (site TAGAGCTCTAC)” and “TAGAAGACTTGGGTTCTAACCTGTTGCTC (site TAGAAGACTAA)” are within 0.2 log units of each other in “recombinant barcode read abundance (log10)” value: 0.119 for the first, 0.216 for the second.

Compared with “TAGAAGACTTGGGTTCTAACCTGTTGCTC (site TAGAAGACTCA)”, “TAGAAGACTTGGGTTCTAACCTGTTGCTC (site TAGAAGACTGA)” is higher in “recombinant barcode read abundance (log10)” value: 0.178 for the first, 1.44 for the second.

Going from “TAGAAGACTTGGGTTCTAACCTGTTGCTC (site TAGAAGACTTA)” to “TAGAAGTCTTGGGTTCTAACCTGTTGCAG (site TAGAAGTCTCT)”, the “recombinant barcode read abundance (log10)” value rises from 0.0266 to 1.9.

“TAGAAGTCTTGGGTTCTAACCTGTTGCAG (site TAGATGTCTCC)” and “TAGAATCCTTGGGTTCTAACCTGTTGCAG (site TAGAATCCTAT)” are within 0.2 log units of each other in “recombinant barcode read abundance (log10)” value: 0.0783 for the first, 0.0897 for the second.

Compared with “TAGAATCCTTGGGTTCTAACCTGTTGCAG (site TAGAATCCTCT)”, “TAGAATCCTTGGGTTCTAACCTGTTGCAG (site TAGAATCCTGT)” is lower in “recombinant barcode read abundance (log10)” value: 0.718 for the first, 0.0644 for the second.

“TAGAATCCTTGGGTTCTAACCTGTTGCAG (site TAGAATCCTTT)” and “TAGACATCTTGGGTTCTAACCTGTTGCGT (site CGCTTTACTCG)” are within 0.2 log units of each other in “recombinant barcode read abundance (log10)” value: 0.072 for the first, 0.125 for the second.

Going from “TAGACATCTTGGGTTCTAACCTGTTGCGT (site TAGACATCTAC)” to “TAGACTACTTGGGTTCTAACCTGTTGCTA (site TAGACTACTAA)”, the “recombinant barcode read abundance (log10)” value falls from 1.65 to 0.198.

“TAGACTACTTGGGTTCTAACCTGTTGCTA (site TAGACTACTCA)” and “TAGACTACTTGGGTTCTAACCTGTTGCTA (site TAGACTACTGA)” are within 0.2 log units of each other in “recombinant barcode read abundance (log10)” value: 0.111 for the first, 0.0863 for the second.

“TAGACTACTTGGGTTCTAACCTGTTGCTA (site TAGACTACTTA)” and “TAGACTCCTTGGGTTCTAACCTGTTGCCA (site ACTTGAGCTAT)” are within 0.2 log units of each other in “recombinant barcode read abundance (log10)” value: 0.268 for the first, 0.336 for the second.

“TAGACTCCTTGGGTTCTAACCTGTTGCCA (site TAGACTCCTTG)” and “TAGAGCTCTTGGGTTCTAACCTGTTGCGT (site TAGAACTCTAC)” are within 0.2 log units of each other in “recombinant barcode read abundance (log10)” value: 0.182 for the first, 0.246 for the second.

Compared with “TAGAGCTCTTGGGTTCTAACCTGTTGCGT (site TAGAGCTCTAC)”, “TAGATGTCTTGGGTTCTAACCTGTTGCGG (site TAGAAGTCTCT)” is lower in “recombinant barcode read abundance (log10)” value: 1.25 for the first, 0.0755 for the second.

Going from “TAGATGTCTTGGGTTCTAACCTGTTGCGG (site TAGATGTCTCC)” to “TAGCAATCTTGGGTTCTAACCTGTTGCTA (site GTCGTTACTAG)”, the “recombinant barcode read abundance (log10)” value falls from 2.43 to 0.0938.

Going from “TAGCAATCTTGGGTTCTAACCTGTTGCTA (site TAGCAATCTTA)” to “TAGCACACTTGGGTTCTAACCTGTTGCGG (site TAGCACACTCC)”, the “recombinant barcode read abundance (log10)” value rises from 0.0837 to 1.21.

“TAGCACACTTGGGTTCTAACCTGTTGCGG (site TAGCCCACTCC)” and “TAGCACACTTGGGTTCTAACCTGTTGCGG (site TAGCGCACTCC)” are within 0.2 log units of each other in “recombinant barcode read abundance (log10)” value: 0.112 for the first, 0.291 for the second.

First: TAGCACACTTGGGTTCTAACCTGTTGCGG (site TAGCTCACTCC)
Second: TAGCATACTTGGGTTCTAACCTGTTGCCA (site TAGCATACTAG)
The “recombinant barcode read abundance (log10)” value of the first is lower: 0.00842 for the first, 0.445 for the second.

Going from “TAGCATACTTGGGTTCTAACCTGTTGCCA (site TAGCATACTCG)” to “TAGCATACTTGGGTTCTAACCTGTTGCCA (site TAGCATACTGG)”, the “recombinant barcode read abundance (log10)” value rises from 0.0183 to 0.359.

First: TAGCATACTTGGGTTCTAACCTGTTGCCA (site TAGCATACTTG)
Second: TAGCCATCTTGGGTTCTAACCTGTTGCCT (site TAACCATCTAG)
The “recombinant barcode read abundance (log10)” value of the first is higher: 0.529 for the first, 0.0247 for the second.

“TAGCCATCTTGGGTTCTAACCTGTTGCCT (site TACCCATCTAG)” and “TAGCCATCTTGGGTTCTAACCTGTTGCCT (site TAGCCATCTAG)” are within 0.2 log units of each other in “recombinant barcode read abundance (log10)” value: 0.166 for the first, 0.121 for the second.

“TAGCCATCTTGGGTTCTAACCTGTTGCCT (site TATCCATCTAG)” and “TAGCCCTCTTGGGTTCTAACCTGTTGCAA (site ACAGTACCTCA)” are within 0.2 log units of each other in “recombinant barcode read abundance (log10)” value: 0.0171 for the first, 0.202 for the second.

Going from “TAGCCCTCTTGGGTTCTAACCTGTTGCAA (site TAGCCCTCTTT)” to “TAGCCCTCTTGGGTTCTAACCTGTTGCCG (site TAGCCCTCTCG)”, the “recombinant barcode read abundance (log10)” value falls from 2.02 to 1.82.

Going from “TAGCCCTCTTGGGTTCTAACCTGTTGCCG (site TAGTCCGCTCG)” to “TAGCCGGCTTGGGTTCTAACCTGTTGCAG (site GAGCCGACTCT)”, the “recombinant barcode read abundance (log10)” value rises from 0.023 to 0.385.

Compared with “TAGCCGGCTTGGGTTCTAACCTGTTGCAG (site TAGCCGGCTCT)”, “TAGCCGGCTTGGGTTCTAACCTGTTGCCT (site TAGCCGGCTAA)” is lower in “recombinant barcode read abundance (log10)” value: 1.06 for the first, 0.264 for the second.

First: TAGCCGGCTTGGGTTCTAACCTGTTGCCT (site TAGCCGGCTAG)
Second: TAGCCGGCTTGGGTTCTAACCTGTTGCTT (site TAGCCGGCTAA)
The “recombinant barcode read abundance (log10)” value of the first is higher: 0.907 for the first, 0.358 for the second.

“TAGCCGGCTTGGGTTCTAACCTGTTGCTT (site TAGCCGGCTAG)” and “TAGCCTTCTTGGGTTCTAACCTGTTGCCT (site TAGCCTTCTAG)” are within 0.2 log units of each other in “recombinant barcode read abundance (log10)” value: 0.386 for the first, 0.572 for the second.

“TAGCCTTCTTGGGTTCTAACCTGTTGCCT (site TCGCCTTCTAG)” and “TAGCCTTCTTGGGTTCTAACCTGTTGCCT (site TGGCCTTCTAG)” are within 0.2 log units of each other in “recombinant barcode read abundance (log10)” value: 0.204 for the first, 0.0192 for the second.

First: TAGCCTTCTTGGGTTCTAACCTGTTGCCT (site TTGCCTTCTAG)
Second: TAGCGGACTTGGGTTCTAACCTGTTGCAT (site TAGCGGACTAT)
The “recombinant barcode read abundance (log10)” value of the first is lower: 0.0659 for the first, 0.992 for the second.

“TAGCGGACTTGGGTTCTAACCTGTTGCAT (site TAGCGGTCTAG)” and “TAGCGGTCTTGGGTTCTAACCTGTTGCCT (site TAGCGGACTAT)” are within 0.2 log units of each other in “recombinant barcode read abundance (log10)” value: 0.0826 for the first, 0.0756 for the second.

Compared with “TAGCGGTCTTGGGTTCTAACCTGTTGCCT (site TAGCGGTCTAG)”, “TAGCGTACTTGGGTTCTAACCTGTTGCGG (site TAGCGTACTAC)” is lower in “recombinant barcode read abundance (log10)” value: 1.46 for the first, 0.107 for the second.

Compared with “TAGCGTACTTGGGTTCTAACCTGTTGCGG (site TAGCGTACTCC)”, “TAGCTCACTTGGGTTCTAACCTGTTGCGG (site TAGCACACTCC)” is lower in “recombinant barcode read abundance (log10)” value: 1.79 for the first, 0.0805 for the second.

For “TAGCTCACTTGGGTTCTAACCTGTTGCGG (site TAGCCCACTCC)”, the “recombinant barcode read abundance (log10)” value was 0.581.
